We go through three molecules from patent EP1878738A1, “ALLERGY-SUPPRESSIVE COMPOSITION, ALLERGY-SUPPRESSIVE FOOD AND ALLERGY-SUPPRESSIVE AGENT” (priority 2005, dated 2006).

Like-named read-outs stand apart in the source and are kept apart here.

The test system of one data set is anti-OVA IgE. Description: Example 2: oral immune tolerance, serum anti-OVA IgE by ELISA in human-flora associated mice. The format is in vivo. The following applies: 1-kestose-administered group, 204 without 1-kestose, germfree mice 496. On the procedure: (§1) In Example 2, to examine the effect of 1-kestose on the production of IgG1 and IgE, 1-kestose was administered to germfree […] to measure IgG1 and IgE amounts in the serum before and after giving 1-kestose.
(§2) In this Example 2, the mice used in the experiment were male […] with 4 weeks of age born and grown in a germfree condition (BALB/c), with 10 to 15 rats as a group. These mice were orally provided with 0.5ml of a liquid obtained by diluting feces of human infants 100 times and observed in a germfree condition for two weeks. Afterward, 5mg of ovalbumin (OVA) was orally administered to the mice for 4 days. To examine the existence of immune tolerance, a liquid obtained by adding 0.1 mg of aluminum hydroxide gel to 1 µg of OVA was injected into the abdominal cavity, 1, 3, 5 and 7 weeks after orally administering OVA. These human-flora associated mice were separated into 1-kestose-administered group and non-administered control group and anti-OVA IgG1 and anti-OVA IgE in the serum were measured by ELISA method, 9 weeks after administering 1-kestose.
(In general: An ELISA detects its analyte on a solid surface through an enzyme-linked reagent.)

The nature of data set [1]: Volunteer experiment on bowel movement, daily dose 2g. Format: in vivo, human. The following applies: daily dose of 2g; volunteer subjects. An excerpt: (§3) According to the results of each above-mentioned Example, it was confirmed that an adult can have the effect of 1-kestose as prebiotics with a daily dose of 3g. […] The subjects were 4 health adult males whose age ranges from 38 to 56. The subject A is 67kg, subject B is 56kg, subject C is 59kg and subject D is 63kg in weight.

Another data set deals with anti-OVA IgG1. Nature of the data set: Example 2: oral immune tolerance, serum anti-OVA IgG1 by ELISA in human-flora associated mice. Format: in vivo. The note with it: 1-kestose-administered group, 41 without 1-kestose, germfree mice 1583. On the procedure: as §1, §2
The test system of data set [2] is Bifidobacterium. Description: Example 7: clinical test, bifidobacterial occupancy in feces. Format: in vivo, human. The following applies: before 30.1 %. An excerpt: (§4) The test subjects were 13 infants with atopic dermatitis and mild and severe eruption (age: 0 to 3 years old) in which food allergic symptoms were accompanied. The test was approved by parents of the subjects.
(§5) In the clinical test, the subjects were kept under observation for 2 weeks and they took 1-kestose with a purity of 98% mixed with water or juice once a day for 12 weeks. The subjects at age 1 or under were provided with 1g of 1-kestose a day and those at age 2 to 3 took 2g of 1-kestose a day. The test subjects used no external preparation of steroid for one month or more before taking 1-kestose. During the test, the subjects were treated mainly with a humectant and took food allergen removing food.
(§6) The subjects were diagnosed at the start of, 6 and 12 weeks after taking 1-kestose, and 4 to 8 weeks after the intake completion to assess the clinical test results (examination of dermis severity and stool samples). The inspection 4 to 8 weeks after the intake completion was aimed at examining drug efficacy sustaining effect. In the stool sample inspection, feces were collected form the subjects to calculate bifidobacterial occupancy in the feces. The eruption severity was examined using Severity Determination Method by Region of Severity Discussion Committee of Japanese Dermatological Association, in which by separating the entire body into 5 regions: head, anterior and posterior parts of the trunk, upper and lower extremities, the sum of comprehensive assessments is calculated in each region (on 0 to 4 scales).

Data set [3] relates to Bifidobacterium. Nature of the data set: Example 1: intestinal bacteria in feces, anaerobic plate culture (Bifidobacterium). Format: in vivo, human. The following applies: after 3g for one month. An excerpt:
(§7) The composition, containing 1-kestose used in this Example 1, is of a 1-kestose purity of 98%, composed of 1-kestose (98 weight %), nystose (1.0 weight %) and sucrose (1.0 weight %). An allergy-suppressive composition, having 1-kestose as an active ingredient, was given to 4 adult males having allergic symptoms, with each dose of 3g for one month. The feces before and after the composition was taken were collected to measure IgA and intestinal bacteria in the feces.
Meanwhile, to measure intestinal bacteria, a sample liquid for measurement was dripped on a flat-plate agar medium by 0.05ml and applied thereon. After anaerobic culture of the sample at 35°C for 3 to 5 days, the bacteria were identified and bacterial count was found.

Data set [4] is classed as in vivo, human. The note with it: many subjects; 1g or 2g a day for 12 weeks.
From the text: as §5, with “The test subjects were 13 infants with atopic dermatitis and mild and severe eruption (age: 0 to 3 years old) in which food allergic symptoms were accompanied. The test was approved by parents of the subjects. In” for “In”

Data set [5] relates to infants with atopic dermatitis. Description: Example 7: clinical test in infants with atopic dermatitis, eruption severity. Format: in vivo, human.
From the text: as §4, §5, §6

For data set [6] the following is noted: in vivo. The text has this: The subjects were 2 volunteer patients with allergic symptoms (adult male and female each). They took 3g of 1-kestose for one month and blood components like nonspecific IgE in the serum were examined.
Data set [7] relates to Bifidobacterium. Description: Example 4: improvement of enterobacterial flora in germfree mice, proportion of Bifidobacterium. The format is in vivo. The following applies: orally administered for 5 days. The text has this:
In this Example 4, the effect of improving the enterobacterial flora of each composition composed of fructooligosaccharide was compared, using germfree mice. The fructooligosaccharide is composed of kestose (trisaccharide), nystose (tetrasaccharide) and F-nystose (pentasaccharide). The kestose used in this Example 4 is composed of 1-kestose (99.0%), nystose (0.5%) and sucrose (0.5%). The nystose is composed of nystose (99.0%), 1-kestose (0.9%) and sucrose (0.1 %). The F-nystose is composed of F-nystose (82.0%), other pentasaccharides (13.0%) and other components (5.0%). Additionally, control groups of mice dosed with sterile water and dosed with usual fructooligosaccharide (1-kestose: 35.8 weight %, nystose: 50.9 weight %, F-nystose: 8.5 weight %) were prepared and their data were obtained for comparison. […] Each oligosaccharide was orally administered to germfree mice for 5 days to determine the proportion of Bifidobacterium proliferated to total bacterial count.

In data set [8] the test system is nonspecific IgE. Nature of the data set: Example 5: nonspecific IgE after 1-kestose and after fructooligosaccharide intake. The format is in vivo, human. On the procedure: In this Example 5, the subjects were 4 adult females (from 27 to 45 years old) with daily allergic symptoms. They took 1-kestose and fructooligosaccharide and nonspecific IgE of each subject was measured. In this experiment, nonspecific IgE before taking the substances was measured and then the subjects took 3g of 1-kestose after eating once a day for 4 weeks. The blood was collected 5 weeks later to measure nonspecific IgE and afterward they took no substances for 2 weeks. Then, the subjects took 3g of fructooligosaccharide after eating once a day for 4 weeks and the blood was collected. The 1-kestose used in this Example 5 has a purity of 95% or more, and the commercially-available fructooligosaccharide is a nystose-dominant oligosaccharide composed of nystose (51 %) and 1-kestose (36%). In the experiment, the subjects took less health foods like prebiotics and probiotics containing other oligosaccharides and Lactobacillus.

Data set [9] relates to Bifidobacterium. Nature of the data set: Example 6: effective amount of 1-kestose, Bifidobacterium count in feces. Format: in vivo, human. The following applies: for minimal effective dose: Bifidobacterium, po, read-out: effective amount of 1-kestose per 1kg body weight.
From the text: as §3
In the experiment, feces were first collected from each subject before taking 1-kestose, and counts of Bifidobacterium, Lactobacillus, Clostridium and total bacteria were measured. Then, they took 1g of 1-kestose once a day for 2 weeks. 15 days later, feces were collected from each subject to measure intestinal bacteria. Afterward, they took no 1-kestose for one week. From the 22nd day, they took 3g of 1-kestose once a day for two weeks, and feces were collected from each subject on the 36th day to measure intestinal bacteria. Figure 13 and Figure 14 show the results.

Data set [10] is described as follows: Example 6: 1-kestose intake with no side effect (diarrhea, organs, blood). Set-up: species or system human. The note with it: in vivo. The text has this:
Meanwhile, the 1-kestose intake with no side effect was examined.

For data set [11], the system named is nonspecific IgE. Description: Example 3: nonspecific IgE in human serum before and after taking 1-kestose. The following applies: adult with allergic symptoms, 3g for one month, standard value 366. The format is in vivo. An excerpt:
In this Example 3, to examine the effect of 1-kestose on IgE amount in the human serum, the subjects were given 1-kestose to measure nonspecific IgE amount in the serum before and after taking 1-kestose.

The test system of another data set is IgA. Description: Example 1: IgA in feces by ELISA before and after taking 1-kestose. Format: in vivo, human.
From the text: as §7
To measure IgA, the collected feces were diluted 20 times with phosphate buffered saline (PBS) and supernatant was collected by a centrifugal separator. Then, the liquid was diluted 10 times with water to make a sample for measurement. Also, an anti-human IgA mouse monoclonal antibody (product of Nacalai Tesque Inc.), and a horseradish peroxidase (HRP)-labeled antibody by labeling the antihuman IgA mouse monoclonal antibody with HRP were prepared. Afterward, IgA was measured using ELISA method.

For `OC[C@H]1O[C@@](CO)(OC[C@@]2(O[C@H]3O[C@H](CO)[C@@H](O)[C@H](O)[C@H]3O)O[C@H](CO)[C@@H](O)[C@@H]2O)[C@@H](O)[C@@H]1O` [1-kestose], the “anti-OVA IgE in the serum” value in the data set on anti-OVA IgE amounted to 156 unit/ml. The “effect on bowel movement” value in data set [1] was “improving bowel movement”. Also, in the data set on anti-OVA IgG1, the “anti-OVA IgG1 in the serum” value worked out at 31 unit/ml. Further, the “mean bifidobacterial occupancy in feces” value in the data set on Bifidobacterium [2] (4 to 8 weeks after completion of 12 weeks intake) is listed as 32.7%; with Bifidobacterium [2] (9 subjects, 6 weeks after taking), 42.3%; in the data set on Bifidobacterium [2] (9 subjects, 12 weeks after taking, p 0.0308 vs start) it was 56.0%. Besides, the “mean bifidobacterial occupancy relative to the total bacterial count” value in the data set with Bifidobacterium [3] (mean, before 19.97%) stood at 43.05%. Moreover, the “bifidobacterial occupancy relative to the total bacterial count” value in the data set with Bifidobacterium [3] (subject A, before 11.67%) was determined as 52.38%; in the data set on Bifidobacterium [3] (subject B, before 38.57%) it was 57.14%. The bowel movement entry in data set [4] is given as “improved bowel movement”. The “eruption (dermis severity, Japanese Dermatological Association method by region)” value in data set [5] (13 infants 0 to 3 years, 1g or 2g a day for 12 weeks, p 0.0022 start vs 12 weeks, p 0.0025 start vs 4 to 8 weeks after completion) is “significant improvement in eruption”. Besides, the “number of subjects with no deterioration or recurrence of eruption” value in [5] (of 11 subjects, 4 to 8 weeks after taking 1-kestose for 12 weeks) is “Seven”. For the same molecule, the “number of subjects who completely removed eruption” value in data set [5] (of 13 subjects, 4 to 8 weeks after taking 1-kestose for 12 weeks) is given as 6. Further, the “C-reactive protein (CRP) value” in [6] is “negative”. For the same molecule, the “effect on hepatic functions, other organs and blood components” value in data set [6] was “no effect on hepatic functions, etc., other organs and blood components”. For the same molecule, the “proportion of Bifidobacterium proliferated to total bacterial count” value (shortened to “proportion”) with Bifidobacterium [7] was determined as 12.59%. For the same molecule, the “mean nonspecific IgE” value in the data set with nonspecific IgE [8] (mean of 4 adult females, 3g once a day for 4 weeks, before 403.8) is listed as 298.8 IU/ml. In the data set with nonspecific IgE [8] (mean of 4 subjects, vs before taking), the “decrease in mean nonspecific IgE” value is “approximately 26%”. Further, the “nonspecific IgE” value in the data set on nonspecific IgE [8] (subject A, 3g once a day for 4 weeks, before 541) was determined as 298 IU/ml; in the data set with nonspecific IgE [8] (subject B, 3g once a day for 4 weeks, before 422), 282 IU/ml; in the data set with nonspecific IgE [8] (subject C as printed, 3g once a day for 4 weeks, before 323), 275 IU/ml. Moreover, the “decrease in nonspecific IgE” value in the data set with nonspecific IgE [8] (subject A, vs before taking) is “approximately 45%”; in the data set with nonspecific IgE [8] (subject B, vs before taking) it was at least 32%; in the data set on nonspecific IgE [8] (subject C as printed, vs before taking), “approximately 25%”. The “increase in nonspecific IgE” value with nonspecific IgE [8] (subject C, vs before taking) is listed as “about 3%”. Also, the minimal effective dose in the data set with Bifidobacterium [9] (mean value) is 16 mg/kg; in the data set on Bifidobacterium [9] (subject A (67kg)), 15 mg/kg; with Bifidobacterium [9] (subject B (56kg)), 18 mg/kg; with Bifidobacterium [9] (subject C (59kg)), 17 mg/kg; in the data set on Bifidobacterium [9] (subject D (63kg)) it was 16 mg/kg. The “effective 1-kestose amount” value in the data set on Bifidobacterium [9] (adult with a weight of at least 60kg) came out at 1 g per day. In addition, the 1-kestose intake with no side effect in data set [10] (human, po) is at most 400 mg/kg/day. For the same molecule, the diarrhea entry in [10] is recorded as “no diarrhea”. The diarrhea symptoms result in [10] is recorded as “no diarrhea symptoms”. Moreover, the “effect on organs and blood component” value in [10] is “no effect on organs and blood component”. Also, the “nonspecific IgE in the serum” value in the data set on nonspecific IgE [11] (before 381) turned out to be 313 IU/ml; in the data set with nonspecific IgE [11] (before 505), 354 IU/ml. In addition, in the data set with IgA (after vs before taking 3g for one month), the “increase of mean IgA concentration in feces” value is at least 1.7 times. In the data set with IgA (mean of 4 adult males with allergic symptoms, 3g for one month, 0.61 before taking), the “mean IgA concentration in feces” value amounted to 1.06 µg/mL. Further, in the data set with IgA (subjects A to C, 3g for one month), the “increase of IgA concentration in feces” value is on record as “twice or more”.
Regarding `OC[C@H]1O[C@@](CO)(OC[C@@]2(OC[C@@]3(OC[C@@]4(O[C@H]5O[C@H](CO)[C@@H](O)[C@H](O)[C@H]5O)O[C@H](CO)[C@@H](O)[C@@H]4O)O[C@H](CO)[C@@H](O)[C@@H]3O)O[C@H](CO)[C@@H](O)[C@@H]2O)[C@@H](O)[C@@H]1O` [F-nystose], in the data set on Bifidobacterium [7], the “proportion” value was 7.94%.
With `OC[C@H]1O[C@@](CO)(OC[C@@]2(OC[C@@]3(O[C@H]4O[C@H](CO)[C@@H](O)[C@H](O)[C@H]4O)O[C@H](CO)[C@@H](O)[C@@H]3O)O[C@H](CO)[C@@H](O)[C@@H]2O)[C@@H](O)[C@@H]1O` [nystose], the “proportion” value in the data set on Bifidobacterium [7] was found to be 7.94%.
